One test deals with ovulation in female rats. The test can be described thus: Anti-ovulatory activity (AOA) in vivo assay in rats. The conditions noted are these: dose 1 μg per rat. On the set-up: species or system rat. As for the experimental part:
As used herein, “LHRH antagonist peptide” is intended to include peptides and peptide analogs which inhibit LHRH activity (i.e., has “LHRH antagonist activity”) in vivo or in vitro. Candidate LHRH antagonist peptides can be assayed, for example, in the animal model described in Corbin and Beattie, Endocrine Res. Commun. 2:1 (1975) (and see infra). In this assay, the LHRH antagonistic activity of a candidate compound is assayed by measuring the antiovulatory activity (AOA) of the compound in rats.
Anti-ovulatory activity (AOA) was measured by an in vivo assay in rats, as described in Corbin and Beattie, Endocrine Res. Commun. 2:1 (1975). In brief, female rats are injected with a candidate LHRH antagonist on the day of proestrus; in general, the candidate LHRH antagonist was dissolved in 0.1% DMSO. The ability of the candidate peptide to inhibit ovulation is measured by determining the number of rats which ovulate. A candidate peptide is considered to have LHRH antagonist qualities if it inhibits ovulation in at least 50% of the treated rats at a dose of 5 μg per rat. Preferred LHRH antagonists inhibit ovulation in at least 50% of rats at a dose of 2 μg per rat, more preferably at a dose of […], and still more preferably at a dose of 0.5 μg per rat.
On to “Ac-D-Nal^1,4-Cl-D-Phe^2,D-Pal^3,D-Lys(COCH2S^+Me2)^6, D-Ala^10-LHRH.2TFA [Compound 4014]”, for which the “AO activity (AOA): rats which ovulate / rats treated” value is 0/8@1.00.
In the case of “Ac-D-Nal^1, 4-Cl-D-Phe^2, D-Pal(N—O)^3, D-Pal(iPr)^6, Lys(iPr)^8, D-Ala^10-LHRH.2TFA [Compound 3882]”, the “AO activity (AOA): rats which ovulate / rats treated” value was 6/8@1.0.
Turning to “Ac-D-Nal^1, 4-Cl-D-Phe^2, D-Pal^3, Asn^4, Tyr^5, D-Cit^6, Lys(iPr)^8, D-Ala^10-LHRH.TFA [Compound 3434]”, the “AO activity (AOA): rats which ovulate / rats treated” value is listed as 4/8@1 μg.
“Ac-D-Nal^1, 4-Cl-D-Phe^2, D-Pal^3, Asn^5, D-Pal(iPr)^6, Lys(iPr)^8, D-Ala^10-LHRH.2TFA [Compound 3744]”: the “AO activity (AOA): rats which ovulate / rats treated” value is on record as 7/8@1.0.
Still for that read-out and setting: the same measure for “Ac-D-Nal^1, 4-Cl-D-Phe^2, D-Pal^3, Cit^5, D-Cit^6, Lys(iPr)^8, D-Ala^10-LHRH.TFA [Compound 3431]”: 6/8@1 μg; for “Ac-D-Nal^1, 4-Cl-D-Phe^2, D-Pal^3, Cit^5, D-Pal(iPr)^6, Lys(iPr)^8, D-Ala^10-LHRH.TFA [Compound 3435]”: 7/8@1 μg; for “Ac-D-Nal^1, 4-Cl-D-Phe^2, D-Pal^3, Cit^5, D-Pal^6, Lys(iPr)^8, D-Ala^10-LHRH.TFA [Compound 3433]”: 5/8@1 μg.
On to “Ac-D-Nal^1, 4-Cl-D-Phe^2, D-Pal^3, D-Arg^6, Dap(COCH2S^+Me2)^8, D-Ala^10-LHRH.2TFA [Compound 4023]”, for which the “AO activity (AOA): rats which ovulate / rats treated” value is on record as 0/8@1.00.
On the same count and under the same terms, the figure for “Ac-D-Nal^1, 4-Cl-D-Phe^2, D-Pal^3, D-Arg^6, Lys(COCH2S^+Me2)^8, D-Ala^10-LHRH.2TFA [Compound 4015]” is 1/8@1.00; for “Ac-D-Nal^1, 4-Cl-D-Phe^2, D-Pal^3, D-Arg^6, Met^8, D-Ala^10-LHRH.TFA [Compound 3995]” it is 5/8@1.00; for “Ac-D-Nal^1, 4-Cl-D-Phe^2, D-Pal^3, D-Arg^6, Orn(COCH2SMe)^8, D-Ala^10-LHRH.2TFA [Compound 3994]” it is 6/8@1.00.
On the same count and under the same terms, the figure for “Ac-D-Nal^1, 4-Cl-D-Phe^2, D-Pal^3, D-Dap(COCH2S^+Me2)^6, D-Ala^10-LHRH.2TFA [Compound 3969]” is 3/8@1.00.
For the substance “Ac-D-Nal^1, 4-Cl-D-Phe^2, D-Pal^3, D-Gln(iPr)^6, Lys(iPr)^8, D-Ala^10-LHRH.2TFA [Compound 3545]”, the “AO activity (AOA): rats which ovulate / rats treated” value was 7/8@1 μg.
For “Ac-D-Nal^1, 4-Cl-D-Phe^2, D-Pal^3, D-Glu(Amp)^6, Lys(iPr)^8, D-Ala^10-LHRH.TFA [Compound 3511]”, the “AO activity (AOA): rats which ovulate / rats treated” value was 7/8@1 μg.
With “Ac-D-Nal^1, 4-Cl-D-Phe^2, D-Pal^3, D-Glu(CSer)^6, Lys(iPr)^8, D-Ala^10-LHRH.2TFA [Compound 3550]”, the “AO activity (AOA): rats which ovulate / rats treated” value is 6/8@1 μg.
Take “Ac-D-Nal^1, 4-Cl-D-Phe^2, D-Pal^3, D-Glu(Dea)^6, Lys(iPr)^8, D-Ala^10-LHRH.TFA [Compound 3543]”: the “AO activity (AOA): rats which ovulate / rats treated” value is recorded as 6/8@1 μg.
“Ac-D-Nal^1, 4-Cl-D-Phe^2, D-Pal^3, D-Glu(Mop)^6, Lys(iPr)^8, D-Ala^10-LHRH.2TFA [Compound 3549]”: the “AO activity (AOA): rats which ovulate / rats treated” value is reported as 6/8@1 μg.
With “Ac-D-Nal^1, 4-Cl-D-Phe^2, D-Pal^3, D-Glu^6, Lys(iPr)^8, D-Ala^10-LHRH.TFA [Compound 3552]”, the “AO activity (AOA): rats which ovulate / rats treated” value is 8/8@1 μg.
Same read-out and setting: the same measure for “Ac-D-Nal^1, 4-Cl-D-Phe^2, D-Pal^3, D-HomoArg(NO2)^6, Lys(iPr)^8, D-Ala^10-LHRH.TFA [Compound 3436]”: 7/8@1 μg; for “Ac-D-Nal^1, 4-Cl-D-Phe^2, D-Pal^3, D-Lys(2-ClNic)^6, Lys(iPr)^8, D-Ala^10-LHRH.TFA [Compound 3441]”: 8/8@1 μg.
As to “Ac-D-Nal^1, 4-Cl-D-Phe^2, D-Pal^3, D-Lys(2-pyrimidylthio)acetic)^6, Lys(iPr)^8, D-Ala^10-LHRH.TFA [Compound 3960]”, the “AO activity (AOA): rats which ovulate / rats treated” value is 5/8@1.00.
As to “Ac-D-Nal^1, 4-Cl-D-Phe^2, D-Pal^3, D-Lys(3-pyridineacetic)^6, Lys(iPr)^8, D-Ala^10-LHRH.TFA [Compound 3440]”, the “AO activity (AOA): rats which ovulate / rats treated” value is recorded as 2/8@1 μg.
On to “Ac-D-Nal^1, 4-Cl-D-Phe^2, D-Pal^3, D-Lys(3-Δ-Pro)^6, Lys(iPr)^8, D-Ala^10-LHRH-TFA [Compound 3721]”, for which the “AO activity (AOA): rats which ovulate / rats treated” value is 4/8@1.0.
Regarding “Ac-D-Nal^1, 4-Cl-D-Phe^2, D-Pal^3, D-Lys(AcGly)^6, Lys(iPr)^8, D-Ala^10-LHRH.TFA [Compound 3759]”, the “AO activity (AOA): rats which ovulate / rats treated” value is listed as 5/8@1.0.
The same measure, in the same setting: the same measure for “Ac-D-Nal^1, 4-Cl-D-Phe^2, D-Pal^3, D-Lys(Ala)^6, Lys(iPr)^8, D-Ala^10-LHRH.TFA [Compound 3771]”: 7/8@1.0; for “Ac-D-Nal^1, 4-Cl-D-Phe^2, D-Pal^3, D-Lys(Dodac)^6, Lys(iPr)^8, D-Ala^10-LHRH.TFA [Compound 3803]”: 2/8@1.0.
On the same count and under the same terms, the figure for “Ac-D-Nal^1, 4-Cl-D-Phe^2, D-Pal^3, D-Lys(Glycolyl)^6, Lys(iPr)^8, D-Ala^10-LHRH.TFA [Compound 3437]” is 7/8@1 μg; for “Ac-D-Nal^1, 4-Cl-D-Phe^2, D-Pal^3, D-Lys(Gulonyl)^6, Lys(iPr)^8, D-Ala^10-LHRH.TFA [Compound 3506]” it is 4/8@1 μg.
Same read-out and setting: the figure for “Ac-D-Nal^1, 4-Cl-D-Phe^2, D-Pal^3, D-Lys(Hippic)^6, Lys(iPr)^8, D-Ala^10-LHRH.TFA [Compound 3758]” is 5/8@1.0; for “Ac-D-Nal^1, 4-Cl-D-Phe^2, D-Pal^3, D-Lys(HomoPro)^6, Lys(iPr)^8, D-Ala^10-LHRH.TFA [Compound 3439]” it is 2/8@1 μg.
In the case of “Ac-D-Nal^1, 4-Cl-D-Phe^2, D-Pal^3, D-Lys(ONic)^6, Lys(iPr)^8, D-Ala^10-LHRH.TFA [Compound 3507]”, the “AO activity (AOA): rats which ovulate / rats treated” value is listed as 1/8@μg.
Same read-out and setting: the figure for “Ac-D-Nal^1, 4-Cl-D-Phe^2, D-Pal^3, D-Lys(Orotic)^6, Lys(iPr)^8, D-Ala^10-LHRH.TFA [Compound 3762]” is 6/8@1.0; for “Ac-D-Nal^1, 4-Cl-D-Phe^2, D-Pal^3, D-Lys(iPr)^5, D-Lys(TFAc)^6, Lys(iPr)^8, D-Ala^10-LHRH.2TFA [Compound 3753]” it is 7/8@1.0; for “Ac-D-Nal^1, 4-Cl-D-Phe^2, D-Pal^3, D-Lys(iPrNic)^5, D-Lys(iPrNic)^6, Lys(iPr)^8, D-Ala^10-LHRH.TFA [Compound 3553]” it is 8/8@1 μg.
In the case of “Ac-D-Nal^1, 4-Cl-D-Phe^2, D-Pal^3, D-Lys^6, Lys(iPr)^8, D-Ala^10-LHRH.TFA [Compound 3505]”, the “AO activity (AOA): rats which ovulate / rats treated” value is reported as 5/8@1 μg.
Same read-out and setting: the figure for “Ac-D-Nal^1, 4-Cl-D-Phe^2, D-Pal^3, D-Met(S^+CH2COPh)^6, D-Ala^10-LHRH.2TFA [Compound 3968]” is 4/8@1.00; for “Ac-D-Nal^1, 4-Cl-D-Phe^2, D-Pal^3, D-Met(S^+Me)^6, Met(S^+Me)^8, D-Ala^10-LHRH.2TFA [Compound 4016]” it is 6/8@1.00.
Still for that read-out and setting: the figure for “Ac-D-Nal^1, 4-Cl-D-Phe^2, D-Pal^3, D-Orn(COCH2S^+Me2)^6, D-Ala^10-LHRH.2TFA [Compound 4013]” is 0/8@1.00.
Take “Ac-D-Nal^1, 4-Cl-D-Phe^2, D-Pal^3, D-Pal(1-Bu)^6, Lys(iPr)^8, D-Ala^10-LHRH.TFA [Compound 3428]”: the “AO activity (AOA): rats which ovulate / rats treated” value is 1/8@1 μg.

Still in this test, the particulars now being: dose 2 μg per rat.
Take “Ac-D-Nal^1, 4-Cl-D-Phe^2, D-Pal^3, D-Glu(PEG)^6, Lys(iPr)^8, D-Ala^10-LHRH.2TFA [Compound 3542]”: the “AO activity (AOA): rats which ovulate / rats treated” value is reported as 7/8@2 μg.

The same test, now with this note: dose 5 μg per rat.
For “Ac-D-(or L)-9-anthryl-Ala^1, 4-Cl-D-Phe^2, D-Pal^3, D-Cit^6-Lys(iPr)^8, D-Ala^10-LHRH.TFA [Compound 3366]”, the “AO activity (AOA): rats which ovulate / rats treated” value is given as 6/8@5 μg.
On to “Ac-D-Nal-4-Cl-D-Phe^2, D-Pal^3, D-Lys(Ac-D-Nal^1 , 4-Cl-D-Phe^2, D-Pal^3, Ser)^6, Lys(iPr)^8, D-Ala^10-LHRH.TFA [Compound 3722]”, for which the “AO activity (AOA): rats which ovulate / rats treated” value is given as 8/8@5.0.
For the substance “Ac-D-Nal^1, 4-Cl-D-Phe^2, D-Pal^3, Arg^5, D-His^6, Trp^7, Orn^8, D-Ala^10-LHRH.TFA [Compound 3854]”, the “AO activity (AOA): rats which ovulate / rats treated” value is 6/8@5.0.

The same test, now with this note: rat, in vivo.
As for “Ac-D-Nal^1, 4-Cl-D-Phe^2, D-Pal^3, D-Arg^6, Dap(COCH2S^+Me2)^8, D-Ala^10-LHRH.2TFA [Compound 4023]”, the “AO activity (AOA), in words” value is on record as “effective”.
As for “Ac-D-Nal^1, 4-Cl-D-Phe^2, D-Pal^3, D-Lys(COCH2CH2N(Et)2)^6, D-Ala^10-LHRH.2TFA [Compound 3949]”, the “AO activity (AOA), in words” value is “low activity”.
As to “Ac-D-Nal^1, 4-Cl-D-Phe^2, D-Pal^3, D-Lys(ONic)^6, Lys(iPr)^8, D-Ala^10-LHRH.TFA [Compound 3507]”, the “AO activity (AOA), in words” value is “high AOA”.
